Laboratory results taken from patent US8968453B2, “Anthrapyridone sulfonic acid compounds and their preparation methods and applications” (Zhuhai Ninestar Management Co., Ltd., priority 2011, dated 2015).

Columns and labels:
Assay type in all cases: physicochemical
[1] = Printed images light resistance test with xenon lamp; conditions: grade of color difference ΔE; ink with 6 portions dye on glossy photo paper; xenon lamp 0.36 W/m^2, 50 h, 60% RH, 24° C.
Source text: (§1) Prepare the ink composition of Table 8 with the product obtained in Embodiment 1-11 as the coloring agent, and filter the ink composition with 0.45 μm membrane filter to obtain the magenta ink composition of the present invention. Add ion exchange water and triethanolamine to adjust the pH value of the ink composition to 8-10 and the weight to 100 portions. By the same methods, prepare ink compositions with control sulfonic-group-free anthrone dyes Dye1 and Dye2, hydrolytic derivatives of commercial dye C.I. reactive red 180 (reactive red 180 for short) and C.I. direct red 227 for comparison.
(§2) Use an ink-jet printer (Epson 270 manufactured by Epson Company), glossy photo paper (Epson) and the above described ink compositions for ink-jet printing.
(1) Printed Images Light Resistance Test with Xenon Lamp
Irradiate the printed glossy photo paper manufactured by Canon and Epson with Xenon-lamp Weathering Test Chamber ZG-P (manufactured by China Surui Company) at 60% RH and 24° C. with illuminance of 0.36 W/m^2 for 50 h to test the color difference (ΔE) before and after the test. The color difference (ΔE) is calculated from the differences of values of L*, a*, b* before and after the test in the above described color measurement system (Unterlab) by the followings formula: ΔE=((difference of L*)^2+(difference of a*)^2+(difference of b*)^2)^1/2.
Three grades will be divided for the evaluation based on the following benchmark: • ΔE<10 ∘ • ΔE<20 Δ • ΔE>20 x

[2] = Gas (ozone) resistance of the printed images; conditions: grade of color difference ΔE; ink with 6 portions dye on glossy photo paper; 40 ppm ozone, 60% RH, 24° C.
Source text: Prepare the ink composition of Table 8 with the product obtained in Embodiment 1-11 as the coloring agent, and filter the ink composition with 0.45 μm membrane filter to obtain the magenta ink composition of the present invention. Add ion exchange water and triethanolamine to adjust the pH value of the ink composition to 8-10 and the weight to 100 portions. By the same methods, prepare ink compositions with control sulfonic-group-free anthrone dyes Dye1 and Dye2, hydrolytic derivatives of commercial dye C.I. reactive red 180 (reactive red 180 for short) and C.I. direct red 227 for comparison. Use an ink-jet printer (Epson 270 manufactured by Epson Company), glossy photo paper (Epson) and the above described ink compositions for ink-jet printing. (2) Gas Resistance of the Printed Images Place the printed images in the Ozone Weathering Test Chamber (manufactured by China Surui Company) at 60% RH, 24° C. and 40 ppm ozone. Calculated the color difference (ΔE) before and after the test by the same method as described in (1) above and evaluate it in 3 grades based on the following benchmark: • ΔE<10 ∘ • ΔE<20 Δ • ΔE>20 x

[3] = Wet resistance of the printed images; set-up: key: No bleeding ∘; Slight bleeding Δ; Notable bleeding x; conditions: bleeding judged by bare eyes; 50° C., 90% RH, 168 h
Source text: as §1, §2
(3) Wet Resistance of the Printed Images
Place the printed images in the Constant Temperature and Humidity Chamber (manufactured by China Surui Company) at 50° C. and 90% RH for 168 h; judge the bleeding of the ink by bare eyes before and after the test and evaluate it in 3 grades based on the following benchmark: • No bleeding ∘ • Slight bleeding Δ • Notable bleeding x

[4] = Evaluation of solubility and solution stability; set-up: key: No precipitation ∘; Slight precipitation Δ; Notable x; conditions: 20 portions dye, 70 portions water, 10 portions ethylene glycol; 50° C. 7 d, then 0° C. 7 d; precipitation on filtering
Protocol: (D) Evaluation of Solubility and Solution Stability
Heat and dissolve the system of 20 portions of dyes, 70 portions of water and 10 portions of ethylene glycol; after the solution cools down, store it airtight at a constant temperature of 50° C. for 7 d; cool it down and store it at 0° C. for 7 d; filter the solution and evaluate it in 3 grades based on the following benchmark: • No precipitation ∘ • Slight precipitation Δ • Notable x

Row | SMILES | UV resistance of printed images [1] | Ozone resistance of printed images [2] | Water resistance of printed images [3] | Solubility and stability of dyes in aqueous solvent system [4]
1 | O=S(=O)([O-])c1cc(Nc2nc(Nc3ccc(/C=C/c4ccc(Nc5nc(Nc6cc(S(=O)(=O)[O-])cc7cc(S(=O)(=O)[O-])c(N=Nc8ccccc8)c(O)c67)nc(N6CCOCC6)n5)cc4S(=O)(=O)[O-])c(S(=O)(=O)[O-])c3)nc(N3CCOCC3)n2)c2c(O)c(N=Nc3ccccc3)c(S(=O)(=O)[O-])cc2c1.[Na+].[Na+].[Na+].[Na+].[Na+].[Na+] [C.I. direct red 227, reference compound] | x (ΔE>20 x) | x (ΔE>20 x) | Δ | Δ
2 | CCN(CC)CCS(=O)(=O)c1ccc(S(=O)(=O)O)c(Nc2ccc3[nH]c(=O)c(C(=O)c4cccc(S(=O)(=O)O)c4)c4c3c2C(=O)c2ccccc2-4)c1 [Dye1, reference compound] | Δ (ΔE<20 Δ) | Δ (ΔE<20 Δ) | ∘ | Δ
3 | CC(=O)Nc1cc(Nc2ccc3[nH]c(=O)c(C(=O)c4cccc(S(=O)(=O)O)c4)c4c3c2C(=O)c2ccccc2-4)c(S(=O)(=O)O)cc1S(=O)(=O)O [Dye2, reference compound] | Δ (ΔE<20 Δ) | Δ (ΔE<20 Δ) | ∘ | Δ
4 | O=C(c1cccc(S(=O)(=O)O)c1)c1c2c3c(c(Nc4cc(S(=O)(=O)CCSCCCS(=O)(=O)O)ccc4S(=O)(=O)O)cc(S(=O)(=O)O)c3[nH]c1=O)C(=O)c1ccccc1-2 [Dye B1] | ∘ (ΔE<10 ∘) | ∘ (ΔE<10 ∘) | ∘ | ∘
5 | CCN(CC)CCS(=O)(=O)c1ccc(S(=O)(=O)O)c(Nc2cc(S(=O)(=O)O)c3[nH]c(=O)c(C(=O)c4cccc(S(=O)(=O)O)c4)c4c3c2C(=O)c2ccccc2-4)c1 [Dye B2] | ∘ (ΔE<10 ∘) | ∘ (ΔE<10 ∘) | ∘ | ∘
6 | O=C(c1cccc(S(=O)(=O)O)c1)c1c2c3c(c(Nc4cc(S(=O)(=O)CCSCCCS(=O)(=O)O)c(S(=O)(=O)O)cc4S(=O)(=O)O)cc(S(=O)(=O)O)c3[nH]c1=O)C(=O)c1ccccc1-2 [Dye B3] | ∘ (ΔE<10 ∘) | ∘ (ΔE<10 ∘) | ∘ | ∘
7 | CCN(CC)CCS(=O)(=O)c1cc(Nc2cc(S(=O)(=O)O)c3[nH]c(=O)c(C(=O)c4cccc(S(=O)(=O)O)c4)c4c3c2C(=O)c2ccccc2-4)c(S(=O)(=O)O)cc1S(=O)(=O)O [Dye B4] | ∘ (ΔE<10 ∘) | ∘ (ΔE<10 ∘) | ∘ | ∘
8 | O=C(c1cccc(S(=O)(=O)O)c1)c1c2c3c(c(Nc4ccc(S(=O)(=O)O)cc4S(=O)(=O)O)cc(S(=O)(=O)O)c3[nH]c1=O)C(=O)c1ccccc1-2 [Dye C1] | ∘ (ΔE<10 ∘) | ∘ (ΔE<10 ∘) | ∘ | ∘
9 | CC(=O)Nc1cc(Nc2cc(S(=O)(=O)O)c3[nH]c(=O)c(C(=O)c4cccc(S(=O)(=O)O)c4)c4c3c2C(=O)c2ccccc2-4)c(S(=O)(=O)O)cc1S(=O)(=O)O [Dye C5] | ∘ (ΔE<10 ∘) | ∘ (ΔE<10 ∘) | ∘ | ∘
10 | O=C(O)c1cc(Oc2nc(Nc3cc(Nc4cc(S(=O)(=O)O)c5[nH]c(=O)c(C(=O)c6cccc(S(=O)(=O)O)c6)c6c5c4C(=O)c4ccccc4-6)c(S(=O)(=O)O)cc3S(=O)(=O)O)nc(Oc3cc(C(=O)O)cc(C(=O)O)c3)n2)cc(C(=O)O)c1 [Dye D1] | ∘ (ΔE<10 ∘) | ∘ (ΔE<10 ∘) | ∘ | ∘
11 | O=C(O)c1cc(Oc2nc(Nc3cc(Nc4cc(S(=O)(=O)O)c5[nH]c(=O)c(C(=O)c6cccc(S(=O)(=O)O)c6)c6c5c4C(=O)c4ccccc4-6)c(S(=O)(=O)O)cc3S(=O)(=O)O)nc(N(CCO)CCO)n2)cc(C(=O)O)c1 [Dye D2] | ∘ (ΔE<10 ∘) | ∘ (ΔE<10 ∘) | ∘ | ∘
12 | CN(c1nc(Oc2cc(C(=O)O)cc(C(=O)O)c2)nc(N(CCO)CCO)n1)c1cc(S(=O)(=O)O)c(Nc2cc(S(=O)(=O)O)c3[nH]c(=O)c(C(=O)c4cccc(S(=O)(=O)O)c4)c4c3c2C(=O)c2ccccc2-4)cc1S(=O)(=O)O [Dye D3] | ∘ (ΔE<10 ∘) | Δ (ΔE<20 Δ) | ∘ | ∘
13 | Cc1ccc(S(=O)(=O)Nc2cc(Nc3cc(S(=O)(=O)O)c4[nH]c(=O)c(C(=O)c5cccc(S(=O)(=O)O)c5)c5c4c3C(=O)c3ccccc3-5)c(S(=O)(=O)O)cc2S(=O)(=O)O)cc1 [Dye D4] | ∘ (ΔE<10 ∘) | Δ (ΔE<20 Δ) | ∘ | Δ
